# Assays:
# [1] = Inhibition of bovine brain PDE1 using fluorescent labeled cGMP as substrate after 15 mins by IMAP assay; design: species or system Bos taurus
# [2] = target: 3',5'-cyclic-AMP phosphodiesterase 4A (Homo sapiens, UniProt P27815); assay: Inhibition of recombinant full lenght human PDE4A using fluorescent labeled cAMP as substrate after 15 mins by IMAP assay
# [3] = Selectivity ratio of Ki for recombinant full lenght human PDE4A to bovine brain PDE1
# [4] = Intrinsic clearance in human liver microsomes; format: ADME; settings: read-out: CLH
# [5] = Lipophilicity, logD of compound at pH 7.4; format: physicochemical; settings: buffer
# [6] = Lipophilicity, logD of compound at pH 1.7; format: physicochemical; settings: buffer
# [7] = Solubility of compound in PBS; format: physicochemical
# [8] = Cmax in C57BL/6 mouse plasma at 10 mg/kg administered through oral gavage; format: ADME, organism-based; design: dose 10 mg/kg, route oral
# [9] = Cmax in C57BL/6 mouse brain at 10 mg/kg administered through oral gavage; format: ADME, organism-based; design: dose 10 mg/kg, route oral
# [10] = AUClast in C57BL/6 mouse plasma at 10 mg/kg administered through oral gavage; format: ADME, organism-based; design: dose 10 mg/kg, time 0 - last, route oral
# [11] = AUClast in C57BL/6 mouse brain at 10 mg/kg administered through oral gavage; format: ADME, organism-based; design: dose 10 mg/kg, time 0 - last, route oral
# in vivo = settings: C57BL/6, mouse, brain/plasma
# [12] = target: cAMP and cAMP-inhibited cGMP 3',5'-cyclic phosphodiesterase 10A (Homo sapiens, UniProt Q9Y233); assay: Inhibition of recombinant full lenght human PDE10A using fluorescent labeled cAMP as substrate after 15 mins by IMAP assay
# [13] = target: cGMP-dependent 3',5'-cyclic phosphodiesterase (Homo sapiens, UniProt O00408); assay: Inhibition of recombinant full length human PDE2A using fluorescent labeled cAMP as substrate after 15 mins by IMAP assay
# [14] = target: cGMP-inhibited 3',5'-cyclic phosphodiesterase 3B (Homo sapiens, UniProt Q13370); assay: Inhibition of recombinant full length human PDE3B using fluorescent labeled cAMP as substrate after 15 mins by IMAP assay
# [15] = target: cGMP-specific 3',5'-cyclic phosphodiesterase (Homo sapiens, UniProt O76074); assay: Inhibition of recombinant full lenght human PDE5A using fluorescent labeled cGMP as substrate after 15 mins by IMAP assay
# [16] = Inhibition of bovine retinal PDE6 using fluorescent labeled cGMP as substrate after 15 mins by IMAP assay
# [17] = target: 3',5'-cyclic-AMP phosphodiesterase 7B (Homo sapiens, UniProt Q9NP56); assay: Inhibition of recombinant full lenght human PDE7B using fluorescent labeled cAMP as substrate after 15 mins by IMAP assay
# [18] = target: High affinity cAMP-specific and IBMX-insensitive 3',5'-cyclic phosphodiesterase 8A (Homo sapiens, UniProt O60658); assay: Inhibition of recombinant full lenght human PDE8A using fluorescent labeled cAMP as substrate after 15 mins by IMAP assay
# [19] = target: High affinity cGMP-specific 3',5'-cyclic phosphodiesterase 9A (Homo sapiens, UniProt O76083); assay: Inhibition of recombinant full lenght human PDE9A using fluorescent labeled cGMP as substrate after 15 mins by IMAP assay
# [20] = Half time in Sprague-Dawley rat at 1 mg/kg, iv; format: ADME, organism-based; settings: in vivo
# [21] = Volume of distribution in Sprague-Dawley rat at 1 mg/kg, iv; format: ADME, organism-based; settings: in vivo
# [22] = Clearance in Sprague-Dawley rat at 1 mg/kg, iv; format: ADME, organism-based; settings: in vivo
# [23] = AUC(infinity) in Sprague-Dawley rat at 1 mg/kg, iv; format: ADME, organism-based; design: dose 1 mg/kg, time infinity, route intravenous; settings: in vivo
# [24] = Half time in Sprague-Dawley rat at 9.75 mg/kg administered through oral gavage; format: ADME, organism-based; settings: in vivo
# [25] = Cmax in Sprague-Dawley rat at 9.75 mg/kg administered through oral gavage; format: ADME, organism-based; design: dose 9.75 mg/kg, route oral; settings: in vivo
# [26] = Tmax in Sprague-Dawley rat at 9.75 mg/kg administered through oral gavage; format: ADME, organism-based; settings: in vivo
# [27] = AUC(infinity) in Sprague-Dawley rat at 9.75 mg/kg administered through oral gavage; format: ADME, organism-based; design: dose 9.75 mg/kg, route oral, time infinity; settings: in vivo
# [28] = Oral bioavailability in Sprague-Dawley rat at 9.75 mg/kg administered through gavage; format: ADME, organism-based; settings: in vivo
# cGMP-inhibited 3',5'-cyclic phosphodiesterase 3B, sequence (Q13370 whole entry): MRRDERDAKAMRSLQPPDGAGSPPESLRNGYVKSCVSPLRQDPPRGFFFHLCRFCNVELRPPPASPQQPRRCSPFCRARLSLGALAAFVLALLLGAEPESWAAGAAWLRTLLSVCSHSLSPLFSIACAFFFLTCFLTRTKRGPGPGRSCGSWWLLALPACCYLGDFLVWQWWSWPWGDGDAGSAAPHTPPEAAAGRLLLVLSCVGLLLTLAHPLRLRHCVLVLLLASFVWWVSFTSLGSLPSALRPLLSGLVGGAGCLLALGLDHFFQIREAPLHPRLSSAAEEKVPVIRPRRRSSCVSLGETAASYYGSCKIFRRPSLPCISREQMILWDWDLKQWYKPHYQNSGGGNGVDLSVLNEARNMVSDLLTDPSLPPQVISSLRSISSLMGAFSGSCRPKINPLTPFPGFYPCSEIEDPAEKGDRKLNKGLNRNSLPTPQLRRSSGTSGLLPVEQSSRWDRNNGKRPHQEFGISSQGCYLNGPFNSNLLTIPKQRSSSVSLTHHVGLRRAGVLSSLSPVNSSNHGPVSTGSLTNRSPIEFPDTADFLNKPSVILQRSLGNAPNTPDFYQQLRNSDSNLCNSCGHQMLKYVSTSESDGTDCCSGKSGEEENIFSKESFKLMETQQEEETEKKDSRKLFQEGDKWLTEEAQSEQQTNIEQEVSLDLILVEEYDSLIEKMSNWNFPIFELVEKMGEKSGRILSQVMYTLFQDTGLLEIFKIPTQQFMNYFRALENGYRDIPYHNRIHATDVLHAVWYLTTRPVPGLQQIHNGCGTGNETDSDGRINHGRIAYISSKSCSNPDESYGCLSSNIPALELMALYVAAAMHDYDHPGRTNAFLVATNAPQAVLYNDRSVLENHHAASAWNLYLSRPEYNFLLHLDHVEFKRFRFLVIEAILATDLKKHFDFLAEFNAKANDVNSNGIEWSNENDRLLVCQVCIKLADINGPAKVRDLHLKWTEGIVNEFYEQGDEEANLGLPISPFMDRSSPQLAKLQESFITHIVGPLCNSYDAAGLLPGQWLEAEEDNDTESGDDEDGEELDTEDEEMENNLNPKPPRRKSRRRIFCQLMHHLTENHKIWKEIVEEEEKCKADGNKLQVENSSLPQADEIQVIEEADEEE
# cAMP and cAMP-inhibited cGMP 3',5'-cyclic phosphodiesterase 10A, sequence (Q9Y233 whole entry): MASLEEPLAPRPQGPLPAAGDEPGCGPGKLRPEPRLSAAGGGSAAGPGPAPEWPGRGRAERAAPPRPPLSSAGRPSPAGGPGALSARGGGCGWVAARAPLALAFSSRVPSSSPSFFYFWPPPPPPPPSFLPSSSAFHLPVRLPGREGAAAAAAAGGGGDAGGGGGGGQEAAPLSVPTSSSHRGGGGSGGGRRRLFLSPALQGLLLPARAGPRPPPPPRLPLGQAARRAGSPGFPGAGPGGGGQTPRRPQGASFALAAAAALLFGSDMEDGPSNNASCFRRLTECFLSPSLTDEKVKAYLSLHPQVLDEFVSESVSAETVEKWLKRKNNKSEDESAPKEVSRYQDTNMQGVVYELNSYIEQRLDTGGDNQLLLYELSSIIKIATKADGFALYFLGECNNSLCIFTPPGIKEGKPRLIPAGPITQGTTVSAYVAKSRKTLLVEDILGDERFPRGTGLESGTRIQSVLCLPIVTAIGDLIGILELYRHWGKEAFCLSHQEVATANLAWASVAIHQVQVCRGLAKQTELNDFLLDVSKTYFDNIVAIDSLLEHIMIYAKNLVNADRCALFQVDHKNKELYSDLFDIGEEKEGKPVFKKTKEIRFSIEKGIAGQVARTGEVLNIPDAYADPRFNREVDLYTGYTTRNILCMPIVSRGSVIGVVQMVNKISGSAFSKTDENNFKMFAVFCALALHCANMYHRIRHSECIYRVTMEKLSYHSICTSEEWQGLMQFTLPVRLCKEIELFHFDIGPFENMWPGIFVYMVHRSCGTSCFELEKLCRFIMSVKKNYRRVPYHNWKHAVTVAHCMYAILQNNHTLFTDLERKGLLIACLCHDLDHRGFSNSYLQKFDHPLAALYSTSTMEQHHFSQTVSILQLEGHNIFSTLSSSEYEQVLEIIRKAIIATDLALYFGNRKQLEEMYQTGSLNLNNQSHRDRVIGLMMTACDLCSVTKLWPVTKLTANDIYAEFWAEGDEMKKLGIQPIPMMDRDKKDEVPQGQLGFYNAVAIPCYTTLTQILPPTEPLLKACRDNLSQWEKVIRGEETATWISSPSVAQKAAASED
# 3',5'-cyclic-AMP phosphodiesterase 7B, sequence (Q9NP56 whole entry): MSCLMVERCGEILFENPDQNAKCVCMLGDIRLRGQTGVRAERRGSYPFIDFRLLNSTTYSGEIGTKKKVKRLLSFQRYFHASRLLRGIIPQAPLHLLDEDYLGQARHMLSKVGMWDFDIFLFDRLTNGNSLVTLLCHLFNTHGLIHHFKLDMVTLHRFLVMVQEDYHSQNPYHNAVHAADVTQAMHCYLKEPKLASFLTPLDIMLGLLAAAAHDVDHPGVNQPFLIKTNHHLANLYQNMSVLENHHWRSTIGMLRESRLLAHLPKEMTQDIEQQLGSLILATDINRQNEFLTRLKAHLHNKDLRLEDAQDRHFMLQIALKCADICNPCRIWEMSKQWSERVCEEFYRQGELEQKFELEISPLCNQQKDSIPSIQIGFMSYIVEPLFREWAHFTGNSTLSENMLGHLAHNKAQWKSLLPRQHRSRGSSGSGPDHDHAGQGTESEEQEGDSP
# cGMP-dependent 3',5'-cyclic phosphodiesterase, sequence (O00408 whole entry): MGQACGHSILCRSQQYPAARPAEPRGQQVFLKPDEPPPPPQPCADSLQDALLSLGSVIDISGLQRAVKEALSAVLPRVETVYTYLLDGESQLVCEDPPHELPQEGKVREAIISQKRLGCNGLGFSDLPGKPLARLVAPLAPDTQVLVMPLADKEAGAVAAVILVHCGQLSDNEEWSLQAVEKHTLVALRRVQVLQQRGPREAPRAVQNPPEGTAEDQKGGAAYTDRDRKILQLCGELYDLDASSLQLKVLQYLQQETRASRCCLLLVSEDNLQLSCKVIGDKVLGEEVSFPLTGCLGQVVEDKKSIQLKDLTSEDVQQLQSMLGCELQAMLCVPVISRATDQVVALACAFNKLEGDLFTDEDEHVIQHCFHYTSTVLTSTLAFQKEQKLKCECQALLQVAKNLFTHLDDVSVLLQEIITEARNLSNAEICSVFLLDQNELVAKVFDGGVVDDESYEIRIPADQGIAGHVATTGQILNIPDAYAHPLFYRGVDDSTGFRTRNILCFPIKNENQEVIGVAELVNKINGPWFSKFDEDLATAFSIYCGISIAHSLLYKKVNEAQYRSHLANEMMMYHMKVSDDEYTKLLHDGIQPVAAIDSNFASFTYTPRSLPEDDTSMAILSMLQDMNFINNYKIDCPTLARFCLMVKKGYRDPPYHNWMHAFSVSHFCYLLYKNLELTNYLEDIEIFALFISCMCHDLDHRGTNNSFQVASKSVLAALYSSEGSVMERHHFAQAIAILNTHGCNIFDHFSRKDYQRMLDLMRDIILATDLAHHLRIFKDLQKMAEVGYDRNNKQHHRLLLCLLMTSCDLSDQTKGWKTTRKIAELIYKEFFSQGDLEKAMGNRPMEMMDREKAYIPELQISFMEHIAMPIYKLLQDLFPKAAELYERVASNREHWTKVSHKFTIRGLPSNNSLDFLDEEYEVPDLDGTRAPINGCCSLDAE
# High affinity cGMP-specific 3',5'-cyclic phosphodiesterase 9A, sequence (O76083 whole entry): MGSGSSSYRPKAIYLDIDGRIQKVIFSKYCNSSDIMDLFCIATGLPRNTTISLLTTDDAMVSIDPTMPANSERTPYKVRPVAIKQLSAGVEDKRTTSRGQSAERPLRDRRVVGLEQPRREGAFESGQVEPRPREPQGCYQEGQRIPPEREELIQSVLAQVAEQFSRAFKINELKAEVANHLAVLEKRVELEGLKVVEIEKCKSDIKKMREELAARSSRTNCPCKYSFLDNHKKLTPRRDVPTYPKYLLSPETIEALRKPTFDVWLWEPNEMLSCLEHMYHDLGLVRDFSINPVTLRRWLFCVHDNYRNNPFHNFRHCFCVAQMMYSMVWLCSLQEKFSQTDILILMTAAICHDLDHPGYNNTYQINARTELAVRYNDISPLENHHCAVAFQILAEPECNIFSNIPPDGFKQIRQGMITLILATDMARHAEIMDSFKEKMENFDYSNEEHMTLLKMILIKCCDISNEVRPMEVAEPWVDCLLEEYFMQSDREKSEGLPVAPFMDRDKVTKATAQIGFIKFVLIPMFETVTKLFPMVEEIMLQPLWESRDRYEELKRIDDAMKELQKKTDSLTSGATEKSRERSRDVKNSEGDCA
# High affinity cAMP-specific and IBMX-insensitive 3',5'-cyclic phosphodiesterase 8A, sequence (O60658 whole entry): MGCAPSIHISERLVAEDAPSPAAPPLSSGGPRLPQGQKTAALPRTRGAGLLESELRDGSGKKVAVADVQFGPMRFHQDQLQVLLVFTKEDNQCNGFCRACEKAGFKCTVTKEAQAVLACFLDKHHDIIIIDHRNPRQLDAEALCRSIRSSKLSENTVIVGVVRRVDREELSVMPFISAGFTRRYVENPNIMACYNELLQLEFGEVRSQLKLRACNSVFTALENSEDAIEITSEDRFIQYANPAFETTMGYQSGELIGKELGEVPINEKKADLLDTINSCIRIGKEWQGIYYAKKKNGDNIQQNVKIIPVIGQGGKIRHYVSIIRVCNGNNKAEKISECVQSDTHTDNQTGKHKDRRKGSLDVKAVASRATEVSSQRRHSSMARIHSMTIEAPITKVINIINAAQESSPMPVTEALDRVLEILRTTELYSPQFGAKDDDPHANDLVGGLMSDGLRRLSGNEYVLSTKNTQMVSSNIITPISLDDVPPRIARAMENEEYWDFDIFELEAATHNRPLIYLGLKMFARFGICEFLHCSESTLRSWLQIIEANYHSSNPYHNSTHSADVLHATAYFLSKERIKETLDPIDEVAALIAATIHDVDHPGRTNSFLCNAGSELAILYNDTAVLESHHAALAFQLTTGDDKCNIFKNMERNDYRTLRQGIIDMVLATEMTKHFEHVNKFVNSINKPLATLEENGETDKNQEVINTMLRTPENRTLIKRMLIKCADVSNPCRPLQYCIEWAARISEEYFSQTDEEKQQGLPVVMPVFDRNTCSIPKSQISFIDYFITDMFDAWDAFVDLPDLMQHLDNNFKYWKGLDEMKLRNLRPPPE
SMILES,Ki [1] [nM],Ki [2] [nM],Ratio Ki [3],CLint scaled [4] [mL/min/kg],logD [5],logD [6],solubility [7] [µM],Cmax [8] [ng/mL],Cmax [9] [ng/mL],AUC(0-t) [10] [ng·h/mL],AUC(0-t) [11] [ng·h/mL],Kp (in vivo),Ki [12] [nM],Ki [13] [nM],Ki [14] [nM],Ki [15] [nM],Ki [16] [nM],Ki [17] [nM],Ki [18] [nM],Ki [19] [nM],also measured
CN1C(=O)c2c(nn(Cc3ccc(-c4cccc(F)n4)cc3)c2Oc2ccccc2)N2C1=N[C@@H]1CCC[C@@H]12,3,250,83,214,4.61,1.05,8,165,170,210,192,0.9,,,,,,,,,
CN1C(=O)c2c(nn(Cc3ccc(-c4cccc(F)n4)cc3)c2Sc2ccccc2)N2C1=N[C@@H]1CCC[C@@H]12,5.2,930,179,208,> 5,2.49,< 1,93,71,108,81,0.8,,,,,,,,,
CN1C(=O)c2c(nn(Cc3ccc(-c4ccccc4)cc3)c2Nc2ccccc2)N2C1=N[C@@H]1CCC[C@@H]12,0.85,1300,,,> 5,1.92,2,130,474,286,542,,7900,37000,1500,1600,1100,910,33000,> 100000,half-life [24]: 3.1 h; Cmax [25]: 102 ng/mL; Tmax [26]: 4 h; AUC(0-inf) [27]: 816 ng·h/mL
CN1C(=O)c2c(nn(Cc3ccc(-c4ccccn4)cc3)c2Nc2ccccc2)N2C1=N[C@@H]1CCC[C@@H]12,0.085,240,,189,3.54,-0.58,> 100,48,28,65,21,,2700,24000,1200,600,430,300,8200,6100,half-life [20]: 0.72 h; Vd [21]: 2.48 L/kg; clearance [22]: 40 mL/min/kg; AUC(0-inf) [23]: 420 ng·h/mL; half-life [24]: 1.5 h; Cmax [25]: 158 ng/mL; Tmax [26]: 0.5 h; AUC(0-inf) [27]: 636 ng·h/mL; bioavailability [28]: 16%

# Now from value to compound, other results behind:
Ki [1] [nM],Ki [2] [nM],Ratio Ki [3],CLint scaled [4] [mL/min/kg],logD [5],logD [6],solubility [7] [µM],Cmax [8] [ng/mL],Cmax [9] [ng/mL],AUC(0-t) [10] [ng·h/mL],AUC(0-t) [11] [ng·h/mL],Kp (in vivo),Ki [12] [nM],Ki [13] [nM],Ki [14] [nM],Ki [15] [nM],Ki [16] [nM],Ki [17] [nM],Ki [18] [nM],Ki [19] [nM],SMILES,also measured
2.3,780,339,81,> 5,1.42,< 1,44,81,69,109,1.6,,,,,,,,,CN1C(=O)c2c(nn(Cc3ccc(-c4cccc(F)n4)cc3)c2Cc2ccc(F)cc2)N2C1=N[C@@H]1CCC[C@@H]12,
6.6,220,33,266,4.77,1.21,7,88,64,119,102,0.9,,,,,,,,,CN1C(=O)c2c(nn(Cc3ccc(-c4cccc(F)n4)cc3)c2Oc2ccc(F)cc2)N2C1=N[C@@H]1CCC[C@@H]12,
0.88,930,,139,4.47,1.16,35,60,285,122,548,,5400,39000,30000,590,1600,1200,54000,50000,CN1C(=O)c2c(nn(Cc3ccc(C(F)(F)F)cc3)c2Nc2ccccc2)N2C1=N[C@@H]1CCC[C@@H]12,half-life [20]: 1.4 h; Vd [21]: 7.44 L/kg; clearance [22]: 62 mL/min/kg; AUC(0-inf) [23]: 271 ng·h/mL; half-life [24]: 1.5 h; Cmax [25]: 75 ng/mL; Tmax [26]: 0.25 h; AUC(0-inf) [27]: 214 ng·h/mL; bioavailability [28]: 8%
0.63,420,667,73,4.57,1.11,31,21,133,24,166,6.9,,,,,,,,,CN1C(=O)c2c(nn(Cc3ccc(C(F)(F)F)cc3)c2Nc2ccc(F)cc2)N2C1=N[C@@H]1CCC[C@@H]12,half-life [20]: 1.5 h; Vd [21]: 7.48 L/kg; clearance [22]: 57 mL/min/kg; AUC(0-inf) [23]: 292 ng·h/mL; half-life [24]: 2.2 h; Cmax [25]: 42 ng/mL; Tmax [26]: 0.5 h; AUC(0-inf) [27]: 164 ng·h/mL; bioavailability [28]: 6%
1.9,1200,,,,,,,,,,,19000,> 100000,42000,1200,5500,6100,> 100000,> 100000,CN1C(=O)c2c(nn(Cc3ccc(C(F)(F)F)nc3)c2Nc2ccccc2)N2C1=N[C@@H]1CCC[C@@H]12,
2.2,770,350,165,4.96,1.36,< 1,86,101,134,154,1.2,,,,,,,,,CN1C(=O)c2c(nn(Cc3ccc(-c4cccc(F)n4)cc3)c2Cc2ccccc2)N2C1=N[C@@H]1CCC[C@@H]12,
